Assay results published in patent US9663478B2, “Benzotriazine oxides as drugs targeting Mycobacterium tuberculosis” (priority 2011, dated 2017).
Converted amounts (≈) assume the structure as drawn.

Experiments:
Mtb H37Rv [1] = assay: TB MIC - ITR (UIC), Institute for Tuberculosis Research; format: cell-based, Mycobacterium tuberculosis; settings: for TB MIC - UIC: Tables P1, P2; for MIC: Mycobacterium tuberculosis, H37RV, Tables 1-4, read-out: TB MIC - ITR
NRP Mtb H37Rv cells = assay: Low-oxygen recovery assay (LORA) MIC; format: cell-based, Mycobacterium tuberculosis; settings: for LORA MIC: Tables P1, P2, non-replicating M. tuberculosis; for MIC: Mycobacterium tuberculosis, H37RV, NRP Mtb, Tables 1-4 and text, read-out: LORA MIC - ITR
in vitro = settings: African green monkey, VERO Tox (CC50)
Mtb H37Rv [2] = assay: TB MIC - SRI, resazurin-based microplate assay; format: cell-based, Mycobacterium tuberculosis; settings: Mycobacterium tuberculosis, H37RV, read-out: TB MIC - SRI
[3] = system: Salmonella typhimurium tester strain TA98; assay: Salmonella/microsome plate incorporation assay (Ames screen), TA98; format: cell-based; settings: for Mean revertants per plate: Salmonella typhimurium
Excerpt: (§1) A liability in developing any bioreductively-activated antimicrobial drug is the potential for mutagenicity. Because the basis for activity of these compounds is the generation of intermediate radical species, undesirable mutagenicity poses a risk, as has been documented for many classes of bioreductive drugs, including the BTO tirapazamine (TPZ).^19,20 The most convenient methodology for assessing the potential to induce genetic damage is to use the plate incorporation method with Salmonella typhimurium strains TA98 and TA100, commonly known as the Ames assay. The Salmonella tester strains have mutations in the histidine operon, a mutation that leads to defective lipopolysaccharide (rfa), and a deletion that covers genes involved in the synthesis of biotin (bio) and in the repair of ultraviolet-induced DNA damage (uvrB).^21,22 These mutations make the strains more permeable to many molecules and increase their susceptibility to the mutagenic effects of these molecules. Given that the hypothesized mechanism of the BTO compounds is to selectively form cytotoxic radical species in bacteria over mammalian cells, a microbial mutagenicity assay is not ideal, but was used to benchmark their activities in this assay. […] Individual plate counts and their means and standard deviations, along with the condition of the background lawn, are presented in SI Table 2.
(§2) Experimental compounds were screened for microbial mutagenicity activity using the plate incorporation method with Salmonella typhimurium tester strains TA98 and TA100, in the presence and absence of an Aroclor 1254-induced rat-liver metabolic activation system containing 10% S9 (MA). The presence of the appropriate genetic characteristics was verified for the strains used in this study. Stock solutions were made by dissolving each test sample in dimethyl sulfoxide (DMSO) at 5 mg/ml. These initial stock concentrations were then serially diluted to achieve dose formulations of 100, 50, 10, 5, 1, 0.5, and 0.1 μg/plate (dosing volume 100 μl). Test plates were compared with the control plates for their revertant count and for the condition of the background bacterial lawn. A test article was considered a mutagen when the mean number of revertant colonies on the test plates exceeds the mean solvent control counts by at least a two-fold margin. Dose relatedness was also taken into account when evaluating a mutagenic response. Cytotoxicity was estimated by several parameters: a substantial decrease in the number of revertant colonies on the test plates, clearing or absence of the background bacterial lawn growth, formation of pinpoint nonrevertant colonies, or complete absence of bacterial growth.

[4] = system: Salmonella typhimurium tester strain TA100; assay: Salmonella/microsome plate incorporation assay (Ames screen), TA100; format: cell-based
Excerpt: as §1, §2

[5] = TA100, with metabolic activation (10% S9), 2 μg per plate, positive control
[6] = TA100, with metabolic activation (10% S9), 0.1 μg per plate
[7] = TA100, with metabolic activation (10% S9), 0.5 μg per plate
[8] = TA100, with metabolic activation (10% S9), 1 μg per plate
[9] = TA100, with metabolic activation (10% S9), 5 μg per plate
[10] = TA100, with metabolic activation (10% S9), 10 μg per plate
[11] = TA100, with metabolic activation (10% S9), 50 μg per plate
[12] = TA100, with metabolic activation (10% S9), 100 μg per plate
[13] = TA100, without metabolic activation, 0.1 μg per plate
[14] = TA100, without metabolic activation, 0.5 μg per plate
[15] = TA100, without metabolic activation, 1 μg per plate
[16] = TA100, without metabolic activation, 5 μg per plate
[17] = TA100, without metabolic activation, 10 μg per plate
[18] = TA100, without metabolic activation, 50 μg per plate
[19] = TA100, without metabolic activation, 100 μg per plate

CCCC(C)Nc1n[n+]([O-])c2ccccc2[n+]1[O-] (stereo not shown) [SRI-012258]
TB MIC - UIC (Mtb H37Rv [1]): 1.95 µg/mL
LORA MIC (NRP Mtb H37Rv cells): 0.99 µg/mL
CC50 at 72 h (in vitro): 26.3 µg/mL (≈ 106 µM)

[O-][n+]1nc(NC2CC2)[n+]([O-])c2ccccc21 [SRI-012255]
TB MIC - UIC (Mtb H37Rv [1]): 1.82 µg/mL
LORA MIC (NRP Mtb H37Rv cells): 1.76 µg/mL
CC50 at 72 h (in vitro): 20.7 µg/mL (≈ 94.9 µM)

CC(=O)Nc1cc(/C=C/c2ccc([N+](=O)[O-])o2)ns1 [Cmpd 2]
MIC (Mtb H37Rv [2]; Tables 1-4 and text): 0.98 µg/mL (≈ 3.51 µM)
MIC (Mtb H37Rv [1]): 3.8 µg/mL (≈ 13.6 µM)
MIC (NRP Mtb H37Rv cells): 3.7 µg/mL (≈ 13.2 µM)
CC50 at 72 h (in vitro): > 50 µg/mL

CCC(COC)Nc1n[n+]([O-])c2ccccc2[n+]1[O-] (stereo not shown) [Compound 8i, 3-((1-methoxybutan-2-yl)amino)benzo[e][1,2,4]triazine 1,4-dioxide]
MIC (Mtb H37Rv [2]; Tables 1-4 and text): 10 µg/mL (≈ 37.8 µM)
MIC (Mtb H37Rv [1]): 6.6 µg/mL (≈ 25 µM)
MIC (NRP Mtb H37Rv cells): 4.9 µg/mL (≈ 18.5 µM)
CC50 at 72 h (in vitro): > 50 µg/mL

C[C@@H](Nc1n[n+]([O-])c2ccccc2[n+]1[O-])C1CCCCC1 (racemic) [SRI-012261]
MIC (Mtb H37Rv [2]; Tables P1-P3): 1.25 µg/mL (≈ 4.33 µM)
TB MIC - UIC (Mtb H37Rv [1]): 0.92 µg/mL
LORA MIC (NRP Mtb H37Rv cells): 0.36 µg/mL
CC50 at 72 h (in vitro): 8.9 µg/mL (≈ 30.9 µM)

C[C@@H]1[C@H]2C[C@@H](C[C@H]1Nc1n[n+]([O-])c3ccccc3[n+]1[O-])C2(C)C (racemic) [SRI-012273]
MIC (Mtb H37Rv [2]; Tables P1-P3): 1.25 µg/mL (≈ 3.98 µM)
TB MIC - UIC (Mtb H37Rv [1]): 0.48 µg/mL
LORA MIC (NRP Mtb H37Rv cells): 0.48 µg/mL
CC50 at 72 h (in vitro): 4.6 µg/mL (≈ 14.6 µM)

[O-][n+]1nc(NC2CCCCC2)[n+]([O-])c2ccccc21 [SRI-012266]
TB MIC - UIC (Mtb H37Rv [1]): 3.77 µg/mL
LORA MIC (NRP Mtb H37Rv cells): 0.75 µg/mL
CC50 at 72 h (in vitro): 8.9 µg/mL (≈ 34.2 µM)

[O-][n+]1nc(NC2CCC2)[n+]([O-])c2ccccc21 [SRI-012260]
MIC (Mtb H37Rv [2]; Tables P1-P3): 1.25 µg/mL (≈ 5.38 µM)
TB MIC - UIC (Mtb H37Rv [1]): 0.94 µg/mL
LORA MIC (NRP Mtb H37Rv cells): 0.84 µg/mL
CC50 at 72 h (in vitro): 8.9 µg/mL (≈ 38.3 µM)

CC1CC(Nc2n[n+]([O-])c3ccccc3[n+]2[O-])CC(C)(C)C1 (stereo not shown) [SRI-012270]
MIC (Mtb H37Rv [2]; Tables P1-P3): 1.25 µg/mL (≈ 4.13 µM)
TB MIC - UIC (Mtb H37Rv [1]): 0.57 µg/mL
LORA MIC (NRP Mtb H37Rv cells): 0.39 µg/mL
CC50 at 72 h (in vitro): 5.2 µg/mL (≈ 17.2 µM)

CCC(COC)Nc1n[n+]([O-])c2cc(Cl)ccc2[n+]1[O-] (stereo not shown) [Compound 15bi, 7-chloro-3-((1-methoxybutan-2-yl)amino)benzo[e][1,2,4]triazine 1,4-dioxide]
MIC (Mtb H37Rv [2]; Tables 1-4 and text): 1.2 µg/mL (≈ 4.02 µM)
MIC (Mtb H37Rv [1]): 1.4 µg/mL (≈ 4.69 µM)
MIC (NRP Mtb H37Rv cells): 0.78 µg/mL (≈ 2.61 µM)
CC50 at 72 h (in vitro): 2.6 µg/mL (≈ 8.7 µM)

Nc1ccc2cc3ccccc3cc2c1 [Compound 2AN]
Ratio treated/solvent ([3]; TA98, with metabolic activation (10% S9), 2 μg per plate, positive control): 15.3
Mean revertants per plate [4, 5]: 490.0
Ratio treated/solvent [4, 5]: 2.9

[O-][n+]1nc(NC2CCCCCC2)[n+]([O-])c2ccccc21 [SRI-012256]
TB MIC - UIC (Mtb H37Rv [1]): 1.64 µg/mL
LORA MIC (NRP Mtb H37Rv cells): 0.5 µg/mL
CC50 at 72 h (in vitro): 7.9 µg/mL (≈ 28.8 µM)

CCNc1n[n+]([O-])c2cc3c(cc2[n+]1[O-])CCC3 [Compound 15fa, 3-(ethylamino)-7,8-dihydro-6H-indeno[5,6-e][1,2,4]triazine 1,4-dioxide]
MIC (Mtb H37Rv [1]): 0.95 µg/mL (≈ 3.86 µM)
MIC (NRP Mtb H37Rv cells): 0.83 µg/mL (≈ 3.37 µM)
number of revertant colonies, TA98 [3]: dose-related increases in the number of revertant colonies
Mean revertants per plate ([3]; 0.1 μg per plate): 21.0
Mean revertants per plate ([3]; 0.1 μg/plate): 35.5
Mean revertants per plate ([3]; 0.5 μg per plate): 19.0
Mean revertants per plate ([3]; 0.5 μg/plate): 36.0
Mean revertants per plate ([3]; 1 μg per plate): 26.0
Mean revertants per plate ([3]; 1 μg/plate): 30.5
Mean revertants per plate ([3]; 5 μg per plate): 47.0
Mean revertants per plate ([3]; 5 μg/plate): 37.0
Mean revertants per plate ([3]; 10 μg per plate): 52.0
Mean revertants per plate ([3]; 10 μg/plate): 45.0
Mean revertants per plate ([3]; 50 μg per plate): 142.5
Mean revertants per plate ([3]; 50 μg/plate): 141.0
Mean revertants per plate ([3]; 100 μg per plate): 345.0
Mean revertants per plate ([3]; 100 μg/plate): 215.5
Ratio treated/solvent ([3]; TA98, with metabolic activation (10% S9), 0.1 μg per plate): 1.0
Ratio treated/solvent ([3]; TA98, with metabolic activation (10% S9), 0.5 μg per plate): 1.0
Ratio treated/solvent ([3]; TA98, with metabolic activation (10% S9), 1 μg per plate): 0.9
Ratio treated/solvent ([3]; TA98, with metabolic activation (10% S9), 5 μg per plate): 1.0
Ratio treated/solvent ([3]; TA98, with metabolic activation (10% S9), 10 μg per plate): 1.5
Ratio treated/solvent ([3]; TA98, with metabolic activation (10% S9), 50 μg per plate): 4.0
Ratio treated/solvent ([3]; TA98, with metabolic activation (10% S9), 100 μg per plate): 9.7
Ratio treated/solvent ([3]; TA98, without metabolic activation, 0.1 μg per plate): 0.8
Ratio treated/solvent ([3]; TA98, without metabolic activation, 0.5 μg per plate): 0.7
Ratio treated/solvent ([3]; TA98, without metabolic activation, 1 μg per plate): 1.0
Ratio treated/solvent ([3]; TA98, without metabolic activation, 5 μg per plate): 1.8
Ratio treated/solvent ([3]; TA98, without metabolic activation, 10 μg per plate): 1.8
Ratio treated/solvent ([3]; TA98, without metabolic activation, 50 μg per plate): 5.5
Ratio treated/solvent ([3]; TA98, without metabolic activation, 100 μg per plate): 8.5
Mean revertants per plate [4, 6]: 145.5
Ratio treated/solvent [4, 6]: 0.9
Mean revertants per plate [4, 7]: 148.5
Ratio treated/solvent [4, 7]: 0.9
Mean revertants per plate [4, 8]: 185.0
Ratio treated/solvent [4, 8]: 1.1
Mean revertants per plate [4, 9]: 207.0
Ratio treated/solvent [4, 9]: 1.2
Mean revertants per plate [4, 10]: 298.5
Ratio treated/solvent [4, 10]: 1.8
Mean revertants per plate [4, 11]: 854.5
Ratio treated/solvent [4, 11]: 5.1
Mean revertants per plate [4, 12]: 1450.0
Ratio treated/solvent [4, 12]: 8.6
Mean revertants per plate [4, 13]: 127.0
Ratio treated/solvent [4, 13]: 0.8
Mean revertants per plate [4, 14]: 137.0
Ratio treated/solvent [4, 14]: 0.8
Mean revertants per plate [4, 15]: 150.5
Ratio treated/solvent [4, 15]: 0.9
Mean revertants per plate [4, 16]: 259.0
Ratio treated/solvent [4, 16]: 1.6
Mean revertants per plate [4, 17]: 299.5
Ratio treated/solvent [4, 17]: 1.8
Mean revertants per plate [4, 18]: 913.5
Ratio treated/solvent [4, 18]: 5.6
Mean revertants per plate [4, 19]: 1268.0
Ratio treated/solvent [4, 19]: 7.8
number of revertant colonies, TA100 ([4]; presence and absence of metabolic activation): dose-related increases in the number of revertant colonies

[O-][n+]1nc(NC2CCCC2)[n+]([O-])c2ccccc21 [SRI-012265]
TB MIC - UIC (Mtb H37Rv [1]): 3.58 µg/mL
LORA MIC (NRP Mtb H37Rv cells): 0.68 µg/mL
CC50 at 72 h (in vitro): 10.4 µg/mL (≈ 42.2 µM)
